Tested on: N5-12G6 riboswitch
Assay: Firefly luciferase assay, N5-12G6 riboswitch in HEK293 cells
Settings: for fold induction at 2 µM / fold induction at 25 µM / fold induction at 3.3 µM: Homo sapiens; for fold induction at 2 µM: HEK293, read-out: Fold induction 2 μM (HEK), 12G6 riboswitch, luciferase, HEK293, 2 μM; for regulation of luciferase expression (FIG. 4e): 12G6 riboswitch, HEK293; for fold induction at 25 µM: HEK293, read-out: Fold induction 25 μM (HEK), 12G6 riboswitch, luciferase, HEK293, 25 μM; for fold induction at 3.3 µM: HEK293, read-out: Fold induction 3.3 μM (HEK), 12G6 riboswitch, luciferase, HEK293, 3.3 μM
Description: Transfection: 3.5×10^4 human embryonic kidney (HEK) 293 cells were plated in a 96-well flat bottom plate the day before transfection. Plasmid DNA (500 ng) was added to a tube or a 96-well U-bottom plate. Separately, TransIT-293 reagent (Mirus; 1.4 L) was added to 50 μL Optimum I media (Life Technologies) and allowed to sit for 5 minutes at room temperature (RT). Then, 50 μL of this diluted transfection reagent was added to the DNA, mixed, and incubated at RT for 20 min. Finally, 7 μL of this solution was added to a well of cells in the 96-well plate. Four hours after transfection, medium containing transfection solution was replaced by medium with either TPP or fursultiamine as aptamer ligands.
Firefly luciferase assay of cultured cells: Twenty-four hours after media change, plates were removed from the incubator, and equilibrated to RT for several minutes on a lab bench, then aspirated. Glo-lysis buffer (Promega, 100 μL, RT) was added, and the plates allowed to remain at RT for at least 5 minutes. Then, the well contents were mixed by 50 μL trituration, and 20 μL of each sample was mixed with 20 μL of bright-glo reagent (Promega) that had been diluted to 10% in glo-lysis buffer. 96 wells were spaced on an opaque white 384-well plate. Following a 5 min incubation at RT, luminescence was measured using a Tecan machine with 500 ms read time. The luciferase activity was expressed as mean arbitrary light units (ALU)±S.D., and fold induction was calculated as the quotient of the luciferase activity obtained from cells with TPP or analog compound treatment divided by the luciferase activity obtained from cells without TPP or analog compound treatment.

SMILES | fold induction at 2 µM | also measured
Fc1cc(CNc2cnccc2OC2CNC2)cc2nccnc12 [compound 028, 4-(Azetidin-3-yloxy)-N-((8-fluoroquinoxalin-6-yl)methyl)pyridin-3-amine] | 33 | –
c1cc(OC2CCNC2)c(NCc2ccc3nccnc3c2)cn1 (stereo not shown) [compound 018, 4-(Pyrrolidin-3-yloxy)-N-(quinoxalin-6-ylmethyl)pyridin-3-amine] | – | regulation of luciferase expression (FIG. 4e): regulate expression in a dose-dependent fashion; fold induction at 25 µM: 286
Fc1cc(CNc2cnccc2N2CCCNCC2)cc2nccnc12 [compound 088, 4-(1,4-diazepan-1-yl)-N-((8-fluoroquinoxalin-6-yl)methyl)pyridin-3-amine] | 2.6 | –
Fc1cncc(NCc2cc3nccnc3cc2Cl)c1N1CCCNCC1 [compound 096, N-((7-chloroquinoxalin-6-yl)methyl)-4-(1,4-diazepan-1-yl)-5-fluoropyridin-3-amine] | 16.2 | –
O=C1CN(c2ccncc2NCc2ccc3nccnc3c2)CCN1 [compound 038, 4-(3-((quinoxalin-6-ylmethyl)amino)pyridin-4-yl)piperazin-2-one] | – | fold induction at 25 µM: 2.9
C[C@@H]1CNCCN1c1ccncc1NCc1ccc2nccnc2c1 [compound 020, (R)-4-(2-Methylpiperazin-1-yl)-N-(quinoxalin-6-ylmethyl)pyridin-3-amine] | 31.2 | fold induction at 3.3 µM: 52
c1cc(NCc2ccc3nccnc3c2)c(N2CCNCC2)cn1 [compound 040, 3-(piperazin-1-yl)-N-(quinoxalin-6-ylmethyl)pyridin-4-amine] | – | fold induction at 25 µM: 69
Clc1cc2nccnc2cc1CNc1cnccc1N1CC2CNCC2C1 (stereo not shown) [compound 099, N-((7-chloroquinoxalin-6-yl)methyl)-4-(hexahydropyrrolo[3,4-c]pyrrol-2(1H)-yl)pyridin-3-amine] | 8.2 | –
N#Cc1ccc(N2CCNCC2)c(NCc2ccc3nccnc3c2)c1 [compound 048, 4-(piperazin-1-yl)-3-((quinoxalin-6-ylmethyl)amino)benzonitrile] | 1 | –
c1cc(N2CC3(CNC3)C2)c(NCc2ccc3nccnc3c2)cn1 [compound 046, N-(quinoxalin-6-ylmethyl)-4-(2,6-diazaspiro[3.3]heptan-2-yl)pyridin-3-amine] | 1.6 | –
Cc1cncc(NCc2cc(F)c3nccnc3c2)c1N1CCNCC1 [compound 084, N-((8-fluoroquinoxalin-6-yl)methyl)-5-methyl-4-(piperazin-1-yl)pyridin-3-amine] | 66.4 | –
FC(F)(F)C1CN(c2ccncc2NCc2ccc3nccnc3c2)CCN1 (stereo not shown) [compound 036, N-(quinoxalin-6-ylmethyl)-4-(3-(trifluoromethyl)piperazin-1-yl)pyridin-3-amine] | – | fold induction at 25 µM: 8.2
COc1cncc(NCc2ccc3nccnc3c2)c1N1CCNCC1 [compound 075, 5-methoxy-4-(piperazin-1-yl)-N-(quinoxalin-6-ylmethyl)pyridin-3-amine] | 18.6 | –
Fc1cc(N2CCNCC2)c(NCc2ccc3nccnc3c2)cn1 [compound 024, 6-Fluoro-4-(piperazin-1-yl)-N-(quinoxalin-6-ylmethyl)pyridin-3-amine] | 35.1 | –
c1cc(O[C@H]2CCNC2)c(NCc2ccc3nccnc3c2)cn1 [compound 044, (S)-4-(pyrrolidin-3-yloxy)-N-(quinoxalin-6-ylmethyl)pyridin-3-amine] | – | fold induction at 3.3 µM: 22
Cc1cc(N2CCNCC2)c(NCc2ccc3nccnc3c2)cn1 [compound 118, 6-methyl-4-(piperazin-1-yl)-N-(quinoxalin-6-ylmethyl)pyridin-3-amine] | 26.2 | –
Fc1cc2nccnc2cc1CNc1cnccc1N1CCCNCC1 [compound 090, 4-(1,4-diazepan-1-yl)-N-((7-fluoroquinoxalin-6-yl)methyl)pyridin-3-amine] | 15 | –
Clc1cncc(NCc2ccc3nccnc3c2)c1N1CCNCC1 [compound 019, 5-Chloro-4-(piperazin-1-yl)-N-(quinoxalin-6-ylmethyl)pyridin-3-amine] | 60.2 | regulation of luciferase expression (FIG. 4e): regulate expression in a dose-dependent fashion; fold induction at 25 µM: 453
Cc1cncc(NCc2ccc3nccnc3c2)c1OC1CNC1 [compound 113, 4-(azetidin-3-yloxy)-5-methyl-N-(quinoxalin-6-ylmethyl)pyridin-3-amine] | 31.9 | –
C[C@@H]1CN(c2ccncc2NCc2cc(F)c3nccnc3c2)CCN1 [compound 060, (R)—N-((8-fluoroquinoxalin-6-yl)methyl)-4-(3-methylpiperazin-1-yl)pyridin-3-amine] | 1.7 | –
c1cc(C2CCNCC2)c(NCc2ccc3nccnc3c2)cn1 [compound 017, 4-(Piperidin-4-yl)-N-(quinoxalin-6-ylmethyl)pyridin-3-amine] | – | fold induction at 25 µM: 130
C[C@H]1CNCCN1c1c(Cl)cncc1NCc1ccc2nccnc2c1 [compound 061, (S)-5-chloro-4-(2-methylpiperazin-1-yl)-N-(quinoxalin-6-ylmethyl)pyridin-3-amine] | 6 | –

SMILES | fold induction at 2 µM | also measured
COc1cc(N2CCNCC2)c(NCc2ccc3nccnc3c2)cn1 [compound 116, 6-methoxy-4-(piperazin-1-yl)-N-(quinoxalin-6-ylmethyl)pyridin-3-amine] | 50 | –
COc1cc(CNc2cnccc2N2CCNCC2)cc2nccnc12 [compound 071, N-((8-methoxyquinoxalin-6-yl)methyl)-4-(piperazin-1-yl)pyridin-3-amine] | 6.1 | –
COc1cc2nccnc2cc1CNc1cnccc1N1CCNCC1 [compound 072, N-((7-methoxyquinoxalin-6-yl)methyl)-4-(piperazin-1-yl)pyridin-3-amine] | 19.6 | –
Clc1cncc(NCc2ccc3nccnc3c2)c1OC1CNC1 [compound 027, 4-(Azetidin-3-yloxy)-5-chloro-N-(quinoxalin-6-ylmethyl)pyridin-3-amine] | 49.4 | –
c1cc(NC2CCNCC2)c(NCc2ccc3nccnc3c2)cn1 [compound 034, N^4-(piperidin-4-yl)-N^3-(quinoxalin-6-ylmethyl)pyridine-3,4-diamine] | – | fold induction at 25 µM: 53.2
C[C@H]1CN(c2ccncc2NCc2cc3nccnc3cc2F)CCN1 [compound 102, (S)—N-((7-fluoroquinoxalin-6-yl)methyl)-4-(3-methylpiperazin-1-yl)pyridin-3-amine] | 13.6 | –
C[C@@H]1CNCCN1c1ccncc1NCc1cc2nccnc2cc1Cl [compound 062, (R)—N-((7-chloroquinoxalin-6-yl)methyl)-4-(2-methylpiperazin-1-yl)pyridin-3-amine] | 8 | –
Clc1cc2nccnc2cc1CNc1cncc(Cl)c1O[C@@H]1CCNC1 [compound 121, (R)-5-chloro-N-((7-chloroquinoxalin-6-yl)methyl)-4-(pyrrolidin-3-yloxy)pyridin-3-amine] | 28.2 | –
Clc1cncc(NCc2cc(Cl)c3nccnc3c2)c1N1CCNCC1 [compound 055, 5-chloro-N-((8-chloroquinoxalin-6-yl)methyl)-4-(piperazin-1-yl)pyridin-3-amine] | 4.1 | –
CN(c1ccncc1NCc1ccc2nccnc2c1)C1CCNC1 (stereo not shown) [compound 035, N^4-methyl-N^4-(pyrrolidin-3-yl)-N^3-(quinoxalin-6-ylmethyl)pyridine-3,4-diamine] | – | fold induction at 25 µM: 86.4
Clc1cc(CNc2cnccc2OC2CNC2)cc2nccnc12 [compound 064, 4-(azetidin-3-yloxy)-N-((8-chloroquinoxalin-6-yl)methyl)pyridin-3-amine] | 15 | –
Fc1cncc(NCc2cc3nccnc3cc2Cl)c1N1CCNCC1 [compound 083, N-((7-chloroquinoxalin-6-yl)methyl)-5-fluoro-4-(piperazin-1-yl)pyridin-3-amine] | 12.8 | –
Fc1cc(CNc2cnccc2N2CCNCC2)cc2nccnc12 [compound 012, N-((8-Fluoroquinoxalin-6-yl)methyl)-4-(piperazin-1-yl)pyridin-3-amine] | – | regulation of luciferase expression (FIG. 4e): regulate expression in a dose-dependent fashion; fold induction at 25 µM: 383
c1cc(N2CCCNCC2)c(NCc2ccc3nccnc3c2)cn1 [compound 014, 4-(1,4-Diazepan-1-yl)-N-(quinoxalin-6-ylmethyl)pyridin-3-amine] | – | regulation of luciferase expression (FIG. 4e): regulate expression in a dose-dependent fashion; fold induction at 25 µM: 251
Cc1cc(CNc2cnccc2N2CCNCC2)cc2nccnc12 [compound 068, N-((8-methylquinoxalin-6-yl)methyl)-4-(piperazin-1-yl)pyridin-3-amine] | 4.4 | –
Clc1cncc(NCc2ccc3nccnc3c2)c1N1CCCNCC1 [compound 093, 5-chloro-4-(1,4-diazepan-1-yl)-N-(quinoxalin-6-ylmethyl)pyridin-3-amine] | 30.7 | –
c1ccc2c(N3CCNCC3)c(NCc3ccc4nccnc4c3)cnc2c1 [compound 115, 4-(piperazin-1-yl)-N-(quinoxalin-6-ylmethyl)quinolin-3-amine] | 79 | –
Cc1c(CNc2cnccc2N2CCNCC2)cc2nccnc2c1C [compound 070, N-((7,8-dimethylquinoxalin-6-yl)methyl)-4-(piperazin-1-yl)pyridin-3-amine] | 2.9 | –
Cc1cncc(NCc2ccc3nccnc3c2)c1N1CCCNCC1 [compound 094, 4-(1,4-diazepan-1-yl)-5-methyl-N-(quinoxalin-6-ylmethyl)pyridin-3-amine] | 35.1 | –
C[C@H]1CNCCN1c1ccncc1NCc1ccc2nccnc2c1 [compound 041, (S)-4-(2-methylpiperazin-1-yl)-N-(quinoxalin-6-ylmethyl)pyridin-3-amine] | – | fold induction at 3.3 µM: 5
C[C@@H]1CNCCN1c1ccncc1NCc1cc2nccnc2cc1F [compound 100, (R)—N-((7-fluoroquinoxalin-6-yl)methyl)-4-(2-methylpiperazin-1-yl)pyridin-3-amine] | 3.5 | –

— patent publication US20250101436A1, “APTAMERS AND SMALL MOLECULE LIGANDS” (MeiraGTx UK II Limited, priority 2021, published 2025)
